Measurements as given in US12116343B2, “Inhibitors of APOL1 and methods of using same” (Vertex Pharmaceuticals Incorporated, priority 2020, dated 2024).

What follows are molecules tested against T1, G1 APOL1 (Homo sapiens, UniProt O14791, I384M/S342G) (assay: Acute APOL1 Thallium Assay with inducible stable clones of HEK 293 cells). Conditions: HEK 293 T-Rex cells expressing G1 APOL1; read-out: Thallium Assay (IC50).
T1 construct: expressed in transfected cells
T1 sequence (O14791 28-398 S342G/I384M): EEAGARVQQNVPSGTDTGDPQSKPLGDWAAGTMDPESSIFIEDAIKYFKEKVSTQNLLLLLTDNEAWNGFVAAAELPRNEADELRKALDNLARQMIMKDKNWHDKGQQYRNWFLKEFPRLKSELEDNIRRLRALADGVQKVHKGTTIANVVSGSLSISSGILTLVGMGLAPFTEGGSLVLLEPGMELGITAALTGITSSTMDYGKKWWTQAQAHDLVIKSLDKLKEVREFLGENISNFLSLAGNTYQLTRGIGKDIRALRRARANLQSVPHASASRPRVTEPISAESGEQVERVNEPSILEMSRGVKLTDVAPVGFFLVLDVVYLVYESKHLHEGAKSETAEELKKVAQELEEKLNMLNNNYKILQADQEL
Format: cell-based
Outline: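 Readout: Tl+-triggered fluorescence, FLIPR, reflecting potassium flux through APOL1 pores after cells take up an AM-ester thallium indicator. Cells: HEK T-Rex stable clone G1 DC3.25, APOL1 G1 induced by tetracycline, seeded 26000 per well.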

IC50	SMILES
> 1000 nM	O=C(CNC(=O)[C@H]1C[C@H](c2c(-c3ccc(F)cc3)[nH]c3c(F)cc(F)cc32)C1)NC[C@@H](O)C(F)(F)F [Compound 233]
> 1000 nM	NC(=O)CNC(=O)[C@H]1C[C@@H](c2c(-c3ccc(F)cc3)[nH]c3c(F)cc(F)cc32)C1 [Compound 250]
> 1000 nM	CC(CO)NC(=O)[C@H]1C[C@@H](c2c(-c3ccc(F)cc3)[nH]c3c(F)cc(F)cc32)C1 (mixture of isomers) [Compound 243]
< 250 nM	CC1(C(=O)NC2(CO)CC2)CC(c2c(-c3ccc(F)cc3)[nH]c3c(F)cc(F)cc23)C1 (mixture of isomers) [Compound 281]
< 250 nM	NC(=O)CNC(=O)C1CC(c2c(-c3ccc(F)cc3)[nH]c3c(F)cc(C(F)(F)F)cc23)C1 (stereo not shown) [Compound 280]
> 1000 nM	O=C([C@H]1C[C@@H](c2c(-c3ccc(F)cc3)[nH]c3c(F)cc(F)cc32)C1)N1C[C@@H](O)[C@H](O)C1 [Compound 274]
< 250 nM	O=C(NC(CO)(CO)CO)[C@H]1C[C@H](c2c(-c3ccc(F)cc3)[nH]c3c(F)cc(F)cc32)C1 [Compound 226]
250 to 1000 nM	C[C@@H](CO)NC(=O)[C@H]1C[C@@H](c2c(-c3ccc(F)cc3)[nH]c3c(F)cc(F)cc32)C1 [Compound 271]
> 1000 nM	Cn1cnc(CNC(=O)[C@H]2C[C@@H](c3c(-c4ccc(F)cc4)[nH]c4c(F)cc(F)cc43)C2)c1 [Compound 261]
> 1000 nM	O=C(NC1CC(O)C1)[C@H]1C[C@@H](c2c(-c3ccc(F)cc3)[nH]c3c(F)cc(F)cc32)C1 (stereo partly shown) [Compound 239]
250 to 1000 nM	O=C(N[C@@H](CO)C(F)F)[C@H]1C[C@@H](c2c(-c3ccc(F)cc3)[nH]c3c(F)cc(F)cc32)C1 [Compound 276]

Same assay, conditions: Table 24, Compounds 287 to 465; read-out: Thallium Assay (IC50)

IC50	SMILES
> 1000 nM	O=C(NCC1CC(F)(F)C1)C1CC(Cc2c(-c3ccc(F)cc3)[nH]c3c(F)cc(F)cc23)C1 (stereo not shown) [Compound 328]
> 1000 nM	COC1CC1NC(=O)O[C@H]1C[C@H](c2c(-c3ccc(F)cc3)[nH]c3c(F)cc(F)cc32)C1 (stereo partly shown) [Compound 376]
> 1000 nM	O=C(NC[C@H]1C[C@H](c2c(-c3ccc(F)cc3)[nH]c3c(F)cc(F)cc32)C1)N[C@H]1CC[C@H](O)C1 [Compound 419]
> 1000 nM	O=C(NCc1ncc[nH]1)C1CC(Cc2c(-c3ccc(F)cc3)[nH]c3c(F)cc(F)cc23)C1 (stereo not shown) [Compound 342]
250 to 1000 nM	O=C(NCC(F)F)O[C@H]1C[C@H](c2c(-c3ccc(F)cc3)[nH]c3c(F)cc(F)cc32)C1 [Compound 351]
< 250 nM	CNC(=O)CNC[C@H]1C[C@H](c2c(-c3ccc(F)cc3)[nH]c3c(F)cc(F)cc32)C1 [Compound 446]
> 1000 nM	O=C(CC1CC(c2c(-c3ccc(F)cc3)[nH]c3c(F)cc(F)cc23)C1)N[C@H](CO)C(F)(F)F (stereo partly shown) [Compound 461]
250 to 1000 nM	O=C(CNC[C@H]1C[C@H](c2c(-c3ccc(F)cc3)[nH]c3c(F)cc(F)cc32)C1)NC1CC1 [Compound 449]
> 1000 nM	O=C(NCc1cnn(CC(F)(F)F)c1)C1CC(Cc2c(-c3ccc(F)cc3)[nH]c3c(F)cc(F)cc23)C1 (stereo not shown) [Compound 331]
> 1000 nM	CC(C)[C@@H](CO)NC(=O)O[C@H]1C[C@H](c2c(-c3ccc(F)cc3)[nH]c3c(F)cc(F)cc32)C1 [Compound 377]
> 1000 nM	O=C(CN[C@H]1C[C@H](c2c(-c3ccc(F)cc3)[nH]c3c(F)cc(F)cc32)C1)NC1CC1 [Compound 293]
> 1000 nM	CC1(O)CC(NC(=O)NC[C@H]2C[C@H](c3c(-c4ccc(F)cc4)[nH]c4c(F)cc(F)cc43)C2)C1 (stereo partly shown) [Compound 401]
> 1000 nM	CC(C)CC(NCC1CC(c2c(-c3ccc(F)cc3)[nH]c3c(F)cc(F)cc23)C1)C(N)=O (stereo not shown) [Compound 441]
250 to 1000 nM	O=C(NCCO)O[C@H]1C[C@H](c2c(-c3ccc(F)cc3)[nH]c3c(F)cc(F)cc32)C1 [Compound 350]
